The values that follow come from paper PMC4734667 (PLoS ONE, 2016).

One series has as its target T1, human GluN2A (Homo sapiens, UniProt Q05586+Q12879).
T1 construct: host or cells: HEK293, tetracycline-induced
Nature of the series: Ca2+ fluorescence (fluo-8) assay in HEK cells expressing GluN2A. As to conditions: for IC50: read-out: GluN2A IC50 (nM) ± SEM (n); for inhibition at 10 µM: HEK293, read-out: inhibition of GluN2A activity at 10 μM, 10 μM compound, HEK cell assay. The format is cell-based. The method, then:
HEK293 cells expressing the human GRIN1/GRIN2A genes (Chantest Catalog #: CT6120) were grown as an adherent monolayer at 37°C, 5% CO2 in DMEM/Ham’s F12 + 10% tetracycline-screened FBS (Hyclone SH3007.03T) and 500 μg/ml G418. […] To prepare the cells for an experiment, they were rinsed with Dulbecco’s PBS (Ca^2+ and Mg^2+ free) and detached from the flask with TrypLE™ Express (Life Technologies, Carlsbad, CA) using the manufacturer’s recommended methods. Cells collected from the flask were washed twice in Ca^2+/Mg^2+-free Hanks Balanced Salt Solution + 20 mM HEPES (HBSS), and counted and assessed for viability with trypan blue. Washed cells were then dye-loaded by resuspending in Fluo-8/AM calcium sensitive dye plus Component B (AAT Bioquest, Sunnyvale, CA) diluted in HBSS. […] The cell plates were centrifuged at 200 x g, for 2 minutes at 21°C, to create a monolayer of cells at the bottom of the wells.
To initiate an assay, 10 μl of test compound or buffer was added to each well of the cell plate and pre-incubated for 10 minutes in the dark. After 10 minutes, the cell plate was placed in a FDSS 6000 plate reader (Hamamatsu Photonics, Middlesex, NJ); baseline fluorescence readings were collected for 20 seconds. Next, 25 μl of agonist solution (3 μM glutamate, 3 μM glycine, and 1 mM Ca^2+ in HBSS) was added and the change in fluorescence was recorded for 3 minutes.
Results were calculated by computing the ratio of maximum fluorescence achieved during agonist-addition phase vs. baseline fluorescence.

In a further series the target is T2, human GluN2B (Homo sapiens, UniProt Q05586+Q13224).
T2 construct: expressed in transfected cells; host or cells: HEK cells
T2 sequence (Q13224 27-1484, other chains not shown): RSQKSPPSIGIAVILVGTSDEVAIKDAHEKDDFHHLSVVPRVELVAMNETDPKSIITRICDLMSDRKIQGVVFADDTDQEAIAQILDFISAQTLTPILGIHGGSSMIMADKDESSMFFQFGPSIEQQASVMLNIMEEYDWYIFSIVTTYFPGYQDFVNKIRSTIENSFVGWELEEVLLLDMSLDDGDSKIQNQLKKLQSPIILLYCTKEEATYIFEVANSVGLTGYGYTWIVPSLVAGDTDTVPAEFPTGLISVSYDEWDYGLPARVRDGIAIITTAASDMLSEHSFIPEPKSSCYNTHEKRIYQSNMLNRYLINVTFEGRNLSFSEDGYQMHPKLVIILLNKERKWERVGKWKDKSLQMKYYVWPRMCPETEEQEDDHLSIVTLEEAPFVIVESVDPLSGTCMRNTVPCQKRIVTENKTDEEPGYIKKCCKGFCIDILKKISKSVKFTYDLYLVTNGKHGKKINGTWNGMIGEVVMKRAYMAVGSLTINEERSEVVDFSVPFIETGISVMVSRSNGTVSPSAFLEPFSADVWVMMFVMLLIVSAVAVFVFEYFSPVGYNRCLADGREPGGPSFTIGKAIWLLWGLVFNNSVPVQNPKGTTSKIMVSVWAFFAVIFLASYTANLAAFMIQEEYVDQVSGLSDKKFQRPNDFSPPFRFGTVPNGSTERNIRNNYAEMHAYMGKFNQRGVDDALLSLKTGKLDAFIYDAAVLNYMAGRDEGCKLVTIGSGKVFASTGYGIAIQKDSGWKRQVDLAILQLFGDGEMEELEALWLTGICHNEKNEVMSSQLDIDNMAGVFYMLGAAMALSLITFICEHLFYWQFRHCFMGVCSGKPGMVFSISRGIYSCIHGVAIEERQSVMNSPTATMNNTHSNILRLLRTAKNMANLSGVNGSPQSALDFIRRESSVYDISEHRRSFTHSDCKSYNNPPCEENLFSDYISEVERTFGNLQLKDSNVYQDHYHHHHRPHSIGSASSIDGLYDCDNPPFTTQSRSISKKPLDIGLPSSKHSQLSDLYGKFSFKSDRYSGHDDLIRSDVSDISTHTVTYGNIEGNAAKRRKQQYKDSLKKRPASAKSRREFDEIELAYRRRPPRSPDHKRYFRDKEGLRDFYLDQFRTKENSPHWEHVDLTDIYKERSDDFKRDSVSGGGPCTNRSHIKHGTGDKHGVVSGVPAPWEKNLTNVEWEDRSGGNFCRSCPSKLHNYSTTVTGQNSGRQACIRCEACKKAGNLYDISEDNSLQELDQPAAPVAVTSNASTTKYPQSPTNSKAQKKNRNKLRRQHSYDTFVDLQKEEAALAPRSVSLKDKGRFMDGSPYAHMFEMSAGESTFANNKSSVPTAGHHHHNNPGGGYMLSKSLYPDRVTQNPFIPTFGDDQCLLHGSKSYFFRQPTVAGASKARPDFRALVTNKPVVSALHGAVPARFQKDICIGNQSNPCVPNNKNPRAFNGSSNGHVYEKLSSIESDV
The series can be described thus: Ca2+ fluorescence (fluo-8) assay in HEK cells expressing GluN2B. The format is cell-based. To be noted: for inhibition at 10 µM: HEK293, 10 μM compound, negative = increase in Ca2+ response, read-out: GluN2B % Inhib. @ 10 μM ± SEM (n).

The target in another series is T3, human GluN2D (Homo sapiens, UniProt O15399+Q05586).
T3 construct: expressed in transfected cells; host or cells: HEK cells
T3 sequence (O15399 28-1336, other chains not shown): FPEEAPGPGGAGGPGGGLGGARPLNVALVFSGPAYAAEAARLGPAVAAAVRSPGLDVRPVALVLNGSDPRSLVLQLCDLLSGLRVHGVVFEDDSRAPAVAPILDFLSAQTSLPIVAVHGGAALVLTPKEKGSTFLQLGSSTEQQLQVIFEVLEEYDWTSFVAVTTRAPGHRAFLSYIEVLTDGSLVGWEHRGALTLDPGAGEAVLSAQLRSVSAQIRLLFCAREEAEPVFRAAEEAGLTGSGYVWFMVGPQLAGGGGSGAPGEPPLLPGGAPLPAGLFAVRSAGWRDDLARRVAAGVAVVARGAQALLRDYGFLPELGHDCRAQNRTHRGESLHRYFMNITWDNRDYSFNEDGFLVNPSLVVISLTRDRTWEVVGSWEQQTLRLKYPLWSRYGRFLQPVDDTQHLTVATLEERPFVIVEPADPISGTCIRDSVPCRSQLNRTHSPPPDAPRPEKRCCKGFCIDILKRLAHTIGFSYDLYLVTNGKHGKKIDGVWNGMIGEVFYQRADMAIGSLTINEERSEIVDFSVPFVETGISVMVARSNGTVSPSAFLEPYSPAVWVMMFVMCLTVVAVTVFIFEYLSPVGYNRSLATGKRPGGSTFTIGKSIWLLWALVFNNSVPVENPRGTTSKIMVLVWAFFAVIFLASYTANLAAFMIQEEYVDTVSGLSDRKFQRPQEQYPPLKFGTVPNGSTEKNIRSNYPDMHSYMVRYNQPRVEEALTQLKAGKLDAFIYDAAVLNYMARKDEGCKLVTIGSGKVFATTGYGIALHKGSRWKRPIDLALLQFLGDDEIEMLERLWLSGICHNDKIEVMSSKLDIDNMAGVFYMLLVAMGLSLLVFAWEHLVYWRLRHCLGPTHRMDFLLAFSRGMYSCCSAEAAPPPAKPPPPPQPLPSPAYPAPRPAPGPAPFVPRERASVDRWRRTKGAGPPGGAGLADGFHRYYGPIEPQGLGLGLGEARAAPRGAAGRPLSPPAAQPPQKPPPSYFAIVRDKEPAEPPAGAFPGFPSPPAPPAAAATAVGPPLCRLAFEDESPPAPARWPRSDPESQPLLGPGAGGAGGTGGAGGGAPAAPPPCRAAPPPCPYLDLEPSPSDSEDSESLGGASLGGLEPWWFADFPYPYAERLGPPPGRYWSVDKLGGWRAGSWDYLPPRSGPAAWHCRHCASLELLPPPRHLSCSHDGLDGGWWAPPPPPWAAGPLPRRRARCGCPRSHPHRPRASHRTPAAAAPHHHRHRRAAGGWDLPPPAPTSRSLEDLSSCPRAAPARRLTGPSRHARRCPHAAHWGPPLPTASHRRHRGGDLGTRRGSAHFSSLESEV
Nature of the series: Ca2+ fluorescence (fluo-8) assay in HEK cells expressing GluN2D. The format is cell-based. As to conditions: for inhibition at 10 µM: HEK293, 10 μM compound, negative = increase in Ca2+ response, read-out: GluN2D % Inhib. @ 10 μM ± SEM (n).

The target of the next series is T4, 5-HT1B (Rattus norvegicus, UniProt P28564).
T4 construct: CEREP (panel CEREP-80)
T4 sequence (P28564 whole entry): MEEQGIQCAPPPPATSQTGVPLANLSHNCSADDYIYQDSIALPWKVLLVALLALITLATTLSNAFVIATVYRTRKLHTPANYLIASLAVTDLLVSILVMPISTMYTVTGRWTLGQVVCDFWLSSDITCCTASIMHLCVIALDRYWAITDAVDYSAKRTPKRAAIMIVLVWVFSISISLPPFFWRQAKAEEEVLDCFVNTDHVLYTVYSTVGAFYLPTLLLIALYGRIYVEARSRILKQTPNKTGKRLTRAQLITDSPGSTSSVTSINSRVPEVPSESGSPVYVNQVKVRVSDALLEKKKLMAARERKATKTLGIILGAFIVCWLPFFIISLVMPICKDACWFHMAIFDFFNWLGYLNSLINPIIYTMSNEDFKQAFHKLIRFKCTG
The series can be described thus: CEREP-80 panel ligand binding, 5-HT1B. As to conditions: read-out: inhibition of 5-HT1B antagonist binding.

The target of the next series is T5, EP4 (Homo sapiens, UniProt P35408).
T5 construct: CEREP (panel CEREP-80)
The series can be described thus: CEREP-80 panel ligand binding, EP4. To be noted: read-out: inhibition of EP4 agonist binding.

For a further series, the system named is MDR1. The series can be described thus: in vitro. The format is in vitro ADME. As to conditions: dog, MDCK-MDR1; for Papp A→B: compound added on apical side (A-B), read-out: MDCK A-B permeability; for Papp B→A: compound added on basal side (B-A), read-out: MDCK B-A permeability. The method, then:
MDCK cells transfected with MDR1 were maintained in monolayer culture for 3–4 days in 24-well transporter plates. Cultures with average TEER values of 600–800 Ohm x cm^2 were utilized for experimentation. Test compound was added to either the apical or basal membrane chamber and then efflux across the monolayer was monitored by quantifying compound with LC-MS/MS.

Series [1] in a line: Stability in pooled human liver microsomes. The series is classed as in vitro ADME. As to conditions: pH 7.4, 1 μM compound, read-out: HLM t½. The method, then: Human liver microsomes were prepared from pooled cryopreserved human hepatocytes (HEP10™, catalog number HMCS10, lot # HuE106, Life Technologies Corporation, Grand Island, NY). According to the vendor, the liver cells from lot HuE106 were derived from tissue obtained from accredited institutions. Consent was obtained by these institutions from the donors or the donor’s legal next of kin, for use of the tissue and its derivatives for research purposes. Microsomes were diluted into 66.7 mM potassium phosphate buffer (pH 7.4) to an approximate concentration of 0.5 mg/mL of microsomal protein. Test compounds (1 μM) were pre-incubated with the microsomes for 5 min at 37°C and then the reaction initiated by addition of […]. After different times up to 30 min, the reactions were quenched, clarified by centrifugation and remaining compound quantified by LC-MS/MS.
(In general: Microsomes from liver hold many membrane-bound enzymes, among them those of drug oxidation.)

A further series can be described thus: Kinetic solubility. The format is physicochemical. To be noted: phosphate buffered saline, aqueous buffer, kinetic from dmso stock; in solution by HPLC after dissolution in DMSO and addition to saline. The method, then:
Compounds were prepared as stock solutions at 20 mM in DMSO and diluted in DMSO to give a range of test concentrations 100-fold greater than final. Compounds were diluted 100-fold into phosphate buffered saline and incubated during mild shaking for 90 min at room temperature. Solutions were filtered through multiscreen solubility filter plate and the filtrate analyzed for compound concentration by HPLC-UV/PDA or LC-MS/MS.

The test system of series [2] is panel of receptors and enzymes relevant to CNS pharmacology (CEREP-80). The series can be described thus: CEREP-80 panel ligand binding, remainder of the panel. To be noted: 1 μM. The source says: […]. […] […]
The next series deals with AMPA receptor. Nature of the series: AMPA receptor-mediated synaptic currents of pyramidal neurons in mouse visual cortex slices. To be noted: in the presence of 50 μM compound; controls 118±16 pA. The series is classed as cell-based. The method, then: […]. […] […].
Wild-type (WT) mice and GRIN2A knock-out (KO) male mice were bred in house at Boston Children’s Hospital. The GRIN2A-KO colony was derived from mice originally obtained from M. Mishina (1995, University of Tokyo, Japan). All procedures using these mice were approved by the Boston Children’s Hospital Institutional Animal Care and Use Committee. Methods used were previously described in [30] and are summarized below.
Coronal visual cortical slices ([…]) were prepared from postnatal day (P)22–31 male mice following decapitation under isoflurane anesthesia. […]
Layer 2/3 pyramidal neurons were selected based on morphology under infrared differential interference contrast microscopy and their identity confirmed from a brief train of action potentials recorded prior to initiating voltage-clamp recordings. […] All data were acquired and analyzed using custom- made procedures in Igor-Pro Software (WaveMetrics, Lake Oswego, Oregon).
To estimate the relative contribution of NMDA and AMPA receptors to the synaptic current, the amplitude was measured at the time of the peak current at -100 mV for the AMPA receptor-mediated current and at the time point after the current at -100 mV had decayed to less than 5% of its peak amplitude for the NMDA receptor-mediated current. […]

In another series the target is T6, 5-HT2A (Homo sapiens, UniProt P28223).
T6 construct: CEREP (panel CEREP-80)
T6 sequence (P28223 whole entry): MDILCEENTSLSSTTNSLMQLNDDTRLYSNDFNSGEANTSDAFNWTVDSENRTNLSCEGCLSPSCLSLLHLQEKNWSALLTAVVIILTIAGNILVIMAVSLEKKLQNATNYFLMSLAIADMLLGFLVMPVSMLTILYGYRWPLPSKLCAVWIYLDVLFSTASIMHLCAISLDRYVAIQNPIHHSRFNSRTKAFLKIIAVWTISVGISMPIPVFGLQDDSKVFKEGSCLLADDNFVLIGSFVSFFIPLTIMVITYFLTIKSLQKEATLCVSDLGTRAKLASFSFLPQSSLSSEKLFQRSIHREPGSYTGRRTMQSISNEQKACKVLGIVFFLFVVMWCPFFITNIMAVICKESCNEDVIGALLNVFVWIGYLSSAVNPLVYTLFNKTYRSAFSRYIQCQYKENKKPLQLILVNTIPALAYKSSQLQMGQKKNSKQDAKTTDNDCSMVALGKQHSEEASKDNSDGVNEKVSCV
Nature of the series: CEREP-80 panel ligand binding, 5-HT2A. To be noted: read-out: inhibition of 5-HT2A agonist binding.

A further series concerns uninjected oocytes. The series can be described thus: Endogenous currents in control (uninjected) oocytes. To be noted: concentrations up to 10 μM. The format is cell-based, Xenopus.
Setting [3] is: inhibition of Ca2+ response, HEK cells, glutamate and glycine 3 μM each.
Setting [4] is: inhibition of Ca2+ response, HEK cells, glutamate and glycine 3 μM each, read-out: GluN2B IC50 (nM) ± SEM (n).
Where [5] appears, read: inhibition of Ca2+ response, HEK cells, glutamate and glycine 3 μM each, read-out: GluN2D IC50 (nM) ± SEM (n).

The IC50 is the concentration that gives 50% inhibition. In general, solubility refers to how much of the substance goes into solution per volume.

Converted amounts (≈) assume the structure as drawn. “Also recorded” adds a separate entry of the source. Where two headings read alike, the source gives them in different places.

T1 sequence (Q12879 23-1464, other chains not shown): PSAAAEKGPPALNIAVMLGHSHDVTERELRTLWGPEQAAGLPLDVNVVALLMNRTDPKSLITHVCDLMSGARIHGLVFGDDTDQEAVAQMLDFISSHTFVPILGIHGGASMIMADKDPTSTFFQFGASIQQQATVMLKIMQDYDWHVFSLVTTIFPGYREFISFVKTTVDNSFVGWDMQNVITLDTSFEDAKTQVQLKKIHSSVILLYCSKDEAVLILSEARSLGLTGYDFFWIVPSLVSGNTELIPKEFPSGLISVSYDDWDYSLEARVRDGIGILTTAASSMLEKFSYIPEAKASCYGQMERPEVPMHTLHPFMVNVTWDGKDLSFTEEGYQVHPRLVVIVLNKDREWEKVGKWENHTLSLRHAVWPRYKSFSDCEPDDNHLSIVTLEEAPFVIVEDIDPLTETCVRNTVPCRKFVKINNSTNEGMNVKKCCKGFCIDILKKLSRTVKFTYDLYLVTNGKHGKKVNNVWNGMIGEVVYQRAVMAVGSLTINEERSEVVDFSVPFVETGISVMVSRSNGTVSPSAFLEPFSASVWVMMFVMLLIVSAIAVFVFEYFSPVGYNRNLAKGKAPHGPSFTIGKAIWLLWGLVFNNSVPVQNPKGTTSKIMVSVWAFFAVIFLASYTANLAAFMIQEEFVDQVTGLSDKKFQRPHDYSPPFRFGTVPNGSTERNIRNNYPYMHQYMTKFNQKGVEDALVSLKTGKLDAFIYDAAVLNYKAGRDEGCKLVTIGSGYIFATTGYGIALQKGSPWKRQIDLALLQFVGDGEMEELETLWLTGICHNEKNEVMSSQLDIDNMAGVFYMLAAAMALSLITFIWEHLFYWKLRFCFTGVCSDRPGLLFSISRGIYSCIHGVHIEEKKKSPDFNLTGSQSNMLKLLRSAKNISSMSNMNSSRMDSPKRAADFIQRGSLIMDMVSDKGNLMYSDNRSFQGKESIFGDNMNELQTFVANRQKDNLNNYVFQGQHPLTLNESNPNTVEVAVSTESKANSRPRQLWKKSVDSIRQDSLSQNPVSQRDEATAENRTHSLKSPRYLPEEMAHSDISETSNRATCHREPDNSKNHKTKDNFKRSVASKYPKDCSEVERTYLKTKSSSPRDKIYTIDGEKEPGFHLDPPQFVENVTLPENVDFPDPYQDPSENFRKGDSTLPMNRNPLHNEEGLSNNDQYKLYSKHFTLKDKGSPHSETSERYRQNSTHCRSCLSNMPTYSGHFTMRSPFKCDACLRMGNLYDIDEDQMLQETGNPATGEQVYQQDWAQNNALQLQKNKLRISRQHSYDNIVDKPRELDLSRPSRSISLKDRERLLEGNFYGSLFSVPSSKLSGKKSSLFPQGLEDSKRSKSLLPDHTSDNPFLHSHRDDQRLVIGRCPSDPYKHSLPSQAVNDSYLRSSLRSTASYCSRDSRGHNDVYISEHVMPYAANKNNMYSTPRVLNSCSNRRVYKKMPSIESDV
Procedure for uninjected oocytes: The cells were then gently aspirated with a Pasteur pipette to remove the follicular tissue; this was followed by washing three times with OR-2 to remove all traces of collagenase. The oocytes were then washed in ND-96 (96 mM NaCl, 2 mM KCl, 1.8 mM CaCl2, 1 mM MgCl2, 5 mM HEPES, 50 ng/L gentamycin, 100 units/ml penicillin and 100 μg/ml streptomycin; pH 7.6) three times and this was followed by incubation in ND-96 at room temperature with mild agitation for 15 minutes; subsequently they were stored for at least 2 hours at 16°C before sorting and selection for injection. Oocytes selected for injection were incubated overnight in ND-96 at 16°C.
Electrodes were filled with 3 M KCl and had resistances that ranged from 0.2–1 MΩ. All measurements were made at a holding potential of -40 mV. Cells were continuously perfused with oocyte recording solution containing 90 mM NaCl, 1 mM KCl, 0.5 mM BaCl2, and 10 mM HEPES (Ph 7.4). […] Co-agonists were applied until a plateau was reached, and test compounds were then added in the continued presence of co-agonists until a new plateau was reached. […] Fraction of current remaining was calculated as [(current in presence of test compound–background current) / (co-agonist current–background current)] and IC50 values were computed using Prism 6.0 (Graphpad).

With `O=C(O)c1cc(=O)c2c(Cl)cc(Cl)cc2[nH]1` [5,7-DCKA, reference compound], the IC50 on human GluN2A (setting [3]) is 1170 ± 230 nM; at human GluN2B (setting [4]), 8400 ± 1400 nM; on human GluN2D (setting [5]) it was above 10000 nM.

For the molecule `N[C@@H](Cc1ccccn1)c1ccccc1` [ARL-15896, reference compound], the 50% inhibitory concentration (IC50) on human GluN2B (setting [4]) worked out at 510000 nM; at human GluN2D (setting [5]) it was 25000 nM.

For the molecule `C[C@@H]([C@@H](O)c1ccc(O)cc1)N1CCC(O)(c2ccccc2)CC1` [CP-101,606, reference compound], the IC50 at human GluN2A (setting [3]) and on human GluN2D (setting [5]) was above 10000 nM in each case.

In the case of `C[C@]12N[C@H](Cc3ccccc31)c1ccccc12` [MK-801, reference compound], the half-inhibitory concentration (IC50) at human GluN2B is 75 ± 4 nM; at human GluN2D, 87 ± 3 nM.

For the molecule `Cc1ncc(CNC(=O)c2cnc(CNS(=O)(=O)c3ccc(F)c(Cl)c3)cn2)s1` [MPX-004, 5-(((3-chloro-4-fluorophenyl)sulfonamido)methyl)-N-((2-methylthiazol-5-yl)methyl)pyrazine-2-carboxamide], the inhibition at 1 µM is 35% on 5-HT1B, 27% at EP4 and 31% at 5-HT2A. The Papp A→B in the series with MDR1 was 17.3 ×10⁻⁶ cm/s. For the same molecule, the Papp B→A with MDR1 stood at 66.1 ×10⁻⁶ cm/s. Also, in series [1], the half-life at 1 μM stood at 53 min. This molecule returned a solubility at 90 min in “Kinetic solubility” of 16 µM (≈ 7.29 µg/mL). Further, the “effects on binding of ligands in the remainder of the panel” value in series [2] is recorded as “less than 25%”. For the same molecule, the “AMPA receptor-mediated synaptic currents” value in the series on AMPA receptor stood at 118±21 pA.

`Cc1ncc(CNC(=O)c2cnc(CNS(=O)(=O)c3ccc(F)c(F)c3)c(C)n2)s1` [MPX-007]: in the series with MDR1, the Papp A→B turned out to be 14.2 ×10⁻⁶ cm/s and the Papp B→A was 76.8 ×10⁻⁶ cm/s. Moreover, the half-life at 1 μM in [1] worked out at 63 min. The solubility at 90 min in the series “Kinetic solubility” came to 68 µM (≈ 30.8 µg/mL). Further, in the series on uninjected oocytes, the “inhibition of currents in control (uninjected) oocytes” value is recorded as “no effect; also recorded: No inhibition”.

Turning to `O=C(O)[C@@H]1[C@H](C(=O)O)NCCN1C(=O)c1ccc2c(ccc3ccccc32)c1` [PPDA, reference compound], the IC50 on human GluN2A (setting [3]) was 4860 ± 960 nM; on human GluN2B (setting [4]), 8490 ± 1000 nM; at human GluN2D (setting [5]), 34800 nM.

Regarding `O=C(NNC(=O)c1ccc(CNS(=O)(=O)c2ccc(F)c(Cl)c2)cc1)c1ccccc1` [TCN-201, 3-chloro-4-fluoro-N-[4-[[2-(phenylcarbonyl)hydrazino]carbonyl]benzyl]benzenesulfonamide, reference compound], in the series on MDR1, the Papp A→B was determined as 7.5 ×10⁻⁶ cm/s and the Papp B→A stood at 58.9 ×10⁻⁶ cm/s. The half-life at 1 μM in [1] stood at 19 min. Further, the concentration in solution in the series “Kinetic solubility” (solubility at 90 min) came to 8 µM (≈ 3.7 µg/mL).

For the molecule `Cc1ncc(CNC(=O)c2ccc(CNS(=O)(=O)c3ccc(F)c(Cl)c3)cc2)s1` [compound 2], the inhibition at 10 µM at human GluN2A was above 95%; at human GluN2B it was 4 ± 1%; at human GluN2D, -6 ± 2%. The IC50 on human GluN2A was 398 ± 90 nM.

In the case of `Cc1ncc(CNC(=O)c2ccc(CNS(=O)(=O)c3ccc(F)c(Cl)c3)cn2)s1` [compound 3], the inhibition at 10 µM on human GluN2A was above 95%; on human GluN2B, 1 ± 1%; on human GluN2D, -6 ± 2%. The IC50 on human GluN2A was found to be 75 ± 13 nM.

Take `Cc1ncc(CNC(=O)c2cnc(CNS(=O)(=O)c3ccc(F)c(F)c3)cn2)s1` [compound 5]: the values for the inhibition at 10 µM at human GluN2A, on human GluN2B and at human GluN2D were above 95%, -8 ± 2% and -10 ± 5%, respectively. For the same molecule, at human GluN2A, the IC50 was 116 ± 22 nM.

Turning to `Cc1ncc(CNC(=O)c2ccc(CNS(=O)(=O)c3ccc(F)c(F)c3)cn2)s1` [compound 6], the results for the inhibition at 10 µM at human GluN2A, on human GluN2B and on human GluN2D were above 95%, -1 ± 1% and -13 ± 10%, respectively. At human GluN2A, the IC50 came to 158 ± 30 nM.

Consider `Cc1ncc(CNC(=O)c2cnc(CNS(=O)(=O)c3ccc(F)c(Cl)c3)c(C)n2)s1` [compound 7], for which the results for the inhibition at 10 µM at human GluN2A, at human GluN2B and on human GluN2D were above 95%, -8 ± 1% and -1 ± 2%, respectively. In addition, the half-inhibitory concentration (IC50) at human GluN2A came to 18 ± 2 nM.

As for `Cc1ncc(CNC(=O)c2cnc(CNS(=O)(=O)c3ccc(Cl)c(F)c3)c(C)n2)s1` [compound 8], the inhibition at 10 µM is above 95% on human GluN2A, -7 ± 2% on human GluN2B and 6 ± 6% on human GluN2D. For the same molecule, the concentration for half-maximal inhibition (IC50) at human GluN2A stood at 971 ± 242 nM.

For the molecule `Cc1ncc(CNC(=O)c2cnc(CN(C)S(=O)(=O)c3ccc(F)c(Cl)c3)c(C)n2)s1` [compound 10], at human GluN2A, the inhibition at 10 µM is above 95% and the 50% inhibitory concentration (IC50) was 242 ± 61 nM.
